Data published in patent US8592456B2 (4SC Discovery GmbH, priority 2011, dated 2013).

Each molecule was assayed on PBMC (T cell proliferation) (assay: T cell proliferation assay, PHA-stimulated human PBMC (BrdU ELISA)). Conditions: PHA-stimulated human PBMC, 48 hours, BrdU; column D; activity classes 1-4; read-out: IC50 (Tcell proliferation).
Format: cell-based
How it was run: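 BrdU ELISA readout of proliferation at 48 hours. Cells: human PBMC from healthy donors in 10% dialyzed FCS/RPMI1640, 1×10^5 per well, activated by 2 μg/ml phytohaemagglutinin in the presence of compound.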

`Fc1cccc(Cl)c1-c1noc(-c2cnn(-c3cccc(Cl)c3)c2C(F)(F)F)c1-c1nccs1` [Example I-5, 3-(2-chloro-6-fluorophenyl)-5-(1-(3-chlorophenyl)-5-(trifluoromethyl)-1H-pyrazol-4-yl)-4-(thiazol-2-yl)isoxazole] and `Fc1cccc(Cl)c1-c1noc(-c2cnn(-c3cccc(Cl)c3)c2C(F)(F)F)c1-c1ccco1` [IB-6, 3-(2-chloro-6-fluorophenyl)-5-(1-(3-chlorophenyl)-5-(trifluoromethyl)-1H-pyrazol-4-yl)-4-(furan-2-yl)isoxazole] cannot be ordered by IC50: under 0.01 µM for the first, under 0.01 µM for the second.

`Cc1nnc(-c2c(-c3c(F)cccc3Cl)noc2-c2cnn(-c3ccccn3)c2C(F)(F)F)o1` [IB-26, 2-(3-(2-chloro-6-fluorophenyl)-5-(1-(pyridin-2-yl)-5-(trifluoromethyl)-1H-pyrazol-4-yl)isoxazol-4-yl)-5-methyl-1,3,4-oxadiazole] and `Cc1nnc(-c2c(-c3c(F)cccc3Cl)noc2-c2cnn(-c3ccccc3F)c2C(F)(F)F)o1` [Example I-11, 2-(3-(2-chloro-6-fluorophenyl)-5-(1-(2-fluorophenyl)-5-(trifluoromethyl)-1H-pyrazol-4-yl)isoxazol-4-yl)-5-methyl-1,3,4-oxadiazole] fall in the same range of IC50: 0.1 to 1 µM for the first, 0.1 to 1 µM for the second.

`Fc1ccccc1-n1ncc(-c2onc(-c3c(F)cccc3Cl)c2-c2nnco2)c1C(F)(F)F` [Example I-15, 2-(3-(2-chloro-6-fluorophenyl)-5-(1-(2-fluorophenyl)-5-(trifluoromethyl)-1H-pyrazol-4-yl)isoxazol-4-yl)-1,3,4-oxadiazole] and `Cc1nnc(-c2c(-c3c(F)cccc3Cl)noc2-c2cnn(-c3ccccc3Cl)c2C(F)(F)F)s1` [IB-20, 3-(2-chloro-6-fluorophenyl)-5-(1-(2-chlorophenyl)-5-(trifluoromethyl)-1H-pyrazol-4-yl)-4-(5-methyl-1,3,4-thiadiazol-2-yl)isoxazole] fall in the same range of IC50: 0.1 to 1 µM for the first, 0.1 to 1 µM for the second.

Same assay, conditions: human PBMC, 2 μg/ml PHA, 48 hours, BrdU; read-out: D: IC50 (Tcell proliferation)

Compared with `COC(=O)c1c(-c2c(F)cccc2Cl)noc1-c1cnn(-c2cccc(F)c2)c1C(F)(F)C(F)F` [Example 64, methyl 3-(2-chloro-6-fluorophenyl)-5-(1-(3-fluorophenyl)-5-(1,1,2,2-tetrafluoroethyl)-1H-pyrazol-4-yl)isoxazole-4-carboxylate], `COC(=O)c1c(-c2c(F)cccc2Cl)noc1-c1cnn(-c2cccc(F)c2)c1C(F)(F)F` [Example 5, methyl 3-(2-chloro-6-fluorophenyl)-5-(1-(3-fluorophenyl)-5-(trifluoromethyl)-1H-pyrazol-4-yl)isoxazole-4-carboxylate] is lower in IC50: 1 to 10 µM for the first, under 0.01 µM for the second.

`O=C(c1c(-c2c(F)cccc2Cl)noc1-c1cnn(-c2ccccc2F)c1C(F)(F)F)N1CCCO1` [Example B-52, (3-(2-chloro-6-fluorophenyl)-5-(1-(2-fluorophenyl)-5-(trifluoromethyl)-1H-pyrazol-4-yl)isoxazol-4-yl)(isoxazolidin-2-yl)methanone] and `O=C(c1c(-c2c(F)cccc2Cl)noc1-c1cnn(-c2ccncc2)c1C(F)(F)F)N1CCCO1` [Example B-57, (3-(2-chloro-6-fluorophenyl)-5-(1-(pyridin-4-yl)-5-(trifluoromethyl)-1H-pyrazol-4-yl)isoxazol-4-yl)(isoxazolidin-2-yl)methanone] fall in the same range of IC50: 1 to 10 µM for the first, 1 to 10 µM for the second.

`COC(=O)c1c(-c2ccc(Cl)cc2Cl)noc1-c1cnn(-c2cccc(F)c2)c1C(F)(F)F` [Example 111, methyl 3-(2,4-dichlorophenyl)-5-(1-(3-fluorophenyl)-5-(trifluoromethyl)-1H-pyrazol-4-y)isoxazole-4-carboxylate] and `CCOC(=O)c1c(-c2ccc(Cl)cc2Cl)noc1-c1cnn(-c2cccc(Cl)c2)c1C(F)(F)F` [Example B-46, ethyl 5-(1-(3-chlorophenyl)-5-(trifluoromethyl)-1H-pyrazol-4-yl)-3-(2,4-dichlorophenyl)-isoxazole-4-carboxylate] fall in the same range of IC50: 0.1 to 1 µM for the first, 0.1 to 1 µM for the second.

First: CCOC(=O)c1c(-c2c(F)cccc2Cl)noc1-c1cnn(-c2cccc(C(N)=O)c2)c1C(F)(F)F [Example B-100, ethyl 5-(1-(3-carbamoylphenyl)-5-(trifluoromethyl)-1H-pyrazol-4-yl)-3-(2-chloro-6-fluorophenyl)isoxazole-4-carboxylate]
Second: CCOC(=O)c1c(-c2c(F)cccc2Cl)noc1-c1cnn(-c2cccc([N+](=O)[O-])c2)c1C(F)(F)F [Example B-90, ethyl 3-(2-chloro-6-fluorophenyl)-5-(1-(3-nitrophenyl)-5-(trifluoromethyl)-1H-pyrazol-4-yl)isoxazole-4-carboxylate]
The IC50 of the first is higher: 1 to 10 µM for the first, 0.01 to 0.1 µM for the second.

First: CNC(=S)c1c(-c2c(F)cccc2Cl)noc1-c1cnn(-c2cccc(F)c2)c1C(F)(F)F [Example 122, 3-(2-chloro-6-fluorophenyl)-5-(1-(3-fluorophenyl)-5-(trifluoromethyl)-1H-pyrazol-4-yl)-N-methylisoxazole-4-carbothioamide]
Second: CNC(=O)c1c(-c2c(Cl)cccc2Cl)noc1-c1cnn(-c2cccc(F)c2)c1C(F)(F)F [Example 110, 3-(2,6-dichlorophenyl)-5-(1-(3-fluorophenyl)-5-(trifluoromethyl)-1H-pyrazol-4-yl)-N-methylisoxazole-4-carboxamide]
The IC50 of the first is higher: 0.1 to 1 µM for the first, 0.01 to 0.1 µM for the second.

First: COC(=O)c1c(-c2c(F)cccc2Cl)noc1-c1cnn(CC(C)C)c1C(F)(F)F [Example 28]
Second: COC(=O)c1c(-c2c(F)cccc2Cl)noc1-c1cnn(-c2ccccc2Cl)c1C(F)(F)F [Example B-20, methyl 3-(2-chloro-6-fluorophenyl)-5-(1-(2-chlorophenyl)-5-(trifluoromethyl)-1H-pyrazol-4-yl)isoxazole-4-carboxylate]
The IC50 of the first is lower: 0.1 to 1 µM for the first, 1 to 10 µM for the second.

`N#Cc1c(-c2c(F)cccc2Cl)noc1-c1cnn(-c2cccc(F)c2)c1C(F)(F)F` [Example 120, 3-(2-chloro-6-fluorophenyl)-5-(1-(3-fluorophenyl)-5-(trifluoromethyl)-1H-pyrazol-4-yl)isoxazole-4-carbonitrile] and `COC(=O)Nc1c(-c2c(F)cccc2Cl)noc1-c1cnn(-c2cccc(F)c2)c1C(F)(F)F` [Example 138, methyl 3-(2-chloro-6-fluorophenyl)-5-[1-(3-fluorophenyl)-5-(trifluoromethyl)-1H-pyrazol-4-yl]isoxazol-4-ylcarbamate] fall in the same range of IC50: 0.1 to 1 µM for the first, 0.1 to 1 µM for the second.

First: COC(=O)c1c(-c2ccccc2F)noc1-c1cnn(-c2cccc(Cl)c2)c1C(F)(F)F [Example B-77, methyl 5-(1-(3-chlorophenyl)-5-(trifluoromethyl)-1H-pyrazol-4-yl)-3-(2-fluorophenyl)isoxazole-4-carboxylate]
Second: CON(C)C(=O)c1c(-c2ccccc2F)noc1-c1cnn(-c2cccc(F)c2)c1C(F)(F)F [Example 94, 3-(2-fluorophenyl)-5-(1-(3-fluorophenyl)-5-(trifluoromethyl)-1H-pyrazol-4-yl)-N-methoxy-N-methylisoxazole-4-carboxamide]
The IC50 of the first is lower: 0.01 to 0.1 µM for the first, 1 to 10 µM for the second. The first is the more potent here.

`COC(=O)c1c(-c2ccccc2)noc1-c1cnn(-c2cccc(F)c2)c1C(F)(F)F` [Example 51, methyl 5-(1-(3-fluorophenyl)-5-(trifluoromethyl)-1H-pyrazol-4-yl)-3-phenylisoxazole-4-carboxylate] and `NNC(=O)c1c(-c2cccc(F)c2)noc1-c1cnn(-c2cccc(F)c2)c1C(F)(F)F` [Example 134, 3-(3-fluorophenyl)-5-(1-(3-fluorophenyl)-5-(trifluoromethyl)-1H-pyrazol-4-yl)isoxazole-4-carbohydrazide] fall in the same range of IC50: 1 to 10 µM for the first, 1 to 10 µM for the second.

`CCOC(=O)c1c(-c2ccncc2F)noc1-c1cnn(-c2ccccn2)c1C(F)(F)F` [Example B-8, ethyl 3-(3-fluoropyridin-4-yl)-5-(1-(pyridin-2-yl)-5-(trifluoromethyl)-1H-pyrazol-4-yl)isoxazole-4-carboxylate] and `CCOC(=O)c1c(-c2c(Cl)cncc2Cl)noc1-c1cnn(-c2ccccc2Cl)c1C(F)(F)F` [Example B-16, ethyl 5-(1-(2-chlorophenyl)-5-(trifluoromethyl)-1H-pyrazol-4-yl)-3-(3,5-dichloropyridin-4-yl)isoxazole-4-carboxylate] fall in the same range of IC50: 1 to 10 µM for the first, 1 to 10 µM for the second.

`CCOC(=O)c1c(-c2onc(-c3c(F)cccc3Cl)c2C(=O)OC)cnn1-c1ccc(Cl)cc1Cl` [Example 6, methyl 3-(2-chloro-6-fluorophenyl)-5-(1-(2,4-dichlorophenyl)-5-(ethoxycarbonyl)-1H-pyrazol-4-yl)isoxazole-4-carboxylate] and `CCOc1cc(-n2ncc(-c3onc(-c4c(F)cccc4Cl)c3C(=O)OC)c2C(F)(F)F)ncn1` [Example 116, methyl 3-(2-chloro-6-fluorophenyl)-5-(1-(6-ethoxypyrimidin-4-yl)-5-(trifluoromethyl)-1H-pyrazol-4-yl)isoxazole-4-carboxylate] fall in the same range of IC50: 1 to 10 µM for the first, 1 to 10 µM for the second.

`CON(C)C(=O)c1c(-c2c(F)cccc2Cl)noc1-c1cnn(-c2ccccc2Cl)c1C(F)(F)F` [Example B-51, 3-(2-chloro-6-fluorophenyl)-5-(1-(2-chlorophenyl)-5-(trifluoromethyl)-1H-pyrazol-4-yl)-N-methoxy-N-methylisoxazole-4-carboxamide] and `CC(C)OC(=O)c1c(-c2c(F)cccc2Cl)noc1-c1cnn(-c2ccccc2Cl)c1C(F)(F)F` [Example B-60] fall in the same range of IC50: 1 to 10 µM for the first, 1 to 10 µM for the second.

First: CCOC(=O)c1c(-c2c(F)cccc2Cl)noc1-c1cnn(-c2ccc(C#N)cc2)c1C(F)(F)F [Example B-40, ethyl 3-(2-chloro-6-fluorophenyl)-5-(1-(4-cyanophenyl)-5-(trifluoromethyl)-1H-pyrazol-4-yl)-isoxazole-4-carboxylate]
Second: O=C(c1c(-c2c(F)cccc2Cl)noc1-c1cnn(-c2ccccc2F)c1C(F)(F)F)N1CCN(Cc2cccc(Cl)c2)CC1 [Example 24, (3-(2-chloro-6-fluorophenyl)-5-(1-(2-fluorophenyl)-5-(trifluoromethyl)-1H-pyrazol-4-yl)isoxazol-4-yl)(4-(3-chlorobenzyl)piperazin-1-yl)methanone]
The IC50 of the first is higher: 1 to 10 µM for the first, 0.1 to 1 µM for the second. The second is the more potent here.
